Assay results reported in patent US20220160872A1, “Drug Adsorbed Highly Porous Activated Carbon for Enhanced Drug Delivery” (THE BOARD OF TRUSTEES OF THE UNIVERSITY OF ILLINOIS, priority 2019, published 2022).

Legend:
HSV-1 = experiment: Prophylactic and therapeutic DECON treatment of HCEs with HSV-1 infection in vitro; assay type: cell-based; details: prophylactically added
Method: Cell monolayer was washed twice with PBS before whole media with required HSV infection was added.
To comprehensively test the efficacy of drug release and resulting antiviral activity of DECON particles, a prophylactic and therapeutic model of treatment was used on HCEs followed by HSV-1 infection in vitro.
Flow cytometry was conducted on the samples at 24 hpi showing the extent of cells infected with HSV-1 GFP (see FIG. 8C). FIG. 8d provides representative immunoblots for samples showing HSV-1 gB protein in comparison with GAPDH for HSV-1 infected HCEs at 24 hpi.

HSV-2 (333 strain) = experiment: Murine model of vaginal HSV-2 infection; assay type: in vivo, BALB/c mice
Method: Naïve 4-week-old female BALB/c mice were purchased from Jackson Laboratory (Bar Harbor, USA) and housed in the university BRL for a period of one week for acclimatization before they were subcutaneously injected with 2 mg of medroxyprogesterone (Depo-Provera) per mice. On day 5 post injection, mice were intravaginally infected with 1×10^6 PFU HSV-2 (333 strain). Similar to the ocular model of infection, DECON was applied topically (intravaginally) on alternate days while ACV (50 mg/mL in PBS) was administered via an intraperitoneal injection. PBS was applied intravaginally as mock treatment for the control group. Vaginal swabs were collected using a Calgiswab (Calcium Alginate Mini-tip Urethro-Genital Swab, Puritan) dipped in OptiMEM (Gibco, USA). Images of the ano-genital region were taken on day 0 and day 7 post infection using a Carl Zeiss stereoscope at 7.5× magnification.
Experiments involving animals were performed under a UIC approved protocol ACC 14-091. The mice were monitored for weight loss and disease scores were recorded in a blinded fashion for 14 days. Sick mice were euthanized according to the IUCAC protocol followed by the collection of ocular/vaginal tissue and lymph nodes. Ocular wash and vaginal swabs were used to assess viral titers using a plaque assay.
With the success of topical ocular therapy with DECON, it was investigated whether this delivery platform was effective for vaginal HSV-2 infections as well. Naïve Balb/c mice were primed with medroxyprogestrone 5 days prior to intravaginal HSV-2 infection. Starting at day 1 post infection, mice were either treated with topical DECON or systemic ACV (5 mg/kg) by intraperitoneal injections […], DECON was administered intravaginally […]. The genital area was imaged using a stereoscope on days 0 and 7 to visualize the extent of damage done to the site of infection. […] This was observed by the phenotype of infection and analyzed by plaque assays from vaginal swabs. […] In the mock treated group, 60% of mice succumbed to death by day 14 post infection, while 20% of mice treated with systemic ACV and none of DECON treated mice succumbed to death (FIG. 5D).

HSV-1 (McKrae) = assay type: in vivo

Structure (SMILES)	antiviral response (HSV-1)	mice succumbed to death (HSV-2 (333 strain); by day 14 post infection) [%]	inflammation of vaginal and anogenital area (HSV-2 (333 strain); compared to mock-treated mice)	viral titers, plaque assays from vaginal swabs (HSV-2 (333 strain); day 4 and day 7 post infection, DECON intravaginal, ACV 5 mg/kg intraperitoneal)	lymph node size (HSV-2 (333 strain); day 14 post infection)	mice succumbed to death (HSV-1 (McKrae); by day 15, topical treatment on alternate days)	viral replication / infection vs mock treated (HSV-1 (McKrae); topical, alternate days, ocular washes)
Nc1nc2c(ncn2COCCO)c(=O)[nH]1 [ACV, Acyclovir]	did not elicit a robust antiviral response	20	only slight inflammation	steady reduction in viral titers	little to no increase in size	–	–
O=c1[nH]c(=O)n([C@H]2C[C@H](O)[C@@H](CO)O2)cc1C(F)(F)F [TFT, trifluridine]	–	–	–	–	–	Up to 20%	did not show any significant reduction in viral replication
